Source: patent US20230382926A1, “COMPOUNDS AND USES THEREOF” (The University of The West Indies, priority 2022, published 2023)

Key:
[1] = system: Carbapenem resistant Klebsiella pneumoniae; experiment: Broth microdilution minimum inhibitory concentration; format: cell-based; conditions: compound alone
Procedure, shortened: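 Broth microdilution followed CLSI M07-A10, using 11 two-fold dilutions (top 1028 μg/mL, 2% DMSO final) and an inoculum of 2×10^5 to 8×10^5 CFU/mL. Wells were scored visually. MIC is the lowest concentration with no growth, tested in duplicate.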

[2] = system: clinical isolate CR-K. pneumoniae 7225; experiment: Non-lethal mouse peritonitis infection model; format: in vivo, Swiss albino mice
Protocol: (§1) For both lethal and non-lethal infection models involving Carbapenem resistant Klebsiella pneumoniae suitable strains, number of mice per treatment and bacterial infection dose were predetermined in preliminary experiments.
Each mouse (n=6 per group) received an intraperitoneal (i.p.) injection of 200 μl of bacterial suspension (1×10^4 CFU ml^−1).
Mice were then treated once daily for two subsequent days (i.e. 24 h and 48 h). Twenty-four-hours after the last dose, the mice were euthanized via cervical dislocation and their spleen and liver excised, homogenized in PBS and plated onto Hichrome™ Klebsiella selective media (HiMedia Laboratories, PA, USA). The plates were incubated at 35° C. for 24 h and bacterial counts were determined (CFU g^−1 organ).
Based on the significance of the SP-azaBIMs to restore the in vitro efficacy of antibiotics against high priority pathogenic bacteria, we examined if these compounds could provide proof of concept that they could be used to treat in vivo infections. To test this, we performed both non-lethal and lethal intraperitoneal infection models in Swiss Albino mice.
There was a significant reduction in the K. pneumoniae load in both the liver (FIG. 2a) and spleen (FIG. 2b) for the combination therapies compared to the respective antibiotic monotherapies. […] Colistin (Col) (10 mg kg^−1) was used as the positive control in this case. K. pneumoniae load in the liver (FIG. 2a) and spleen (FIG. 2b) was determined by selective plating on Hichrome™ Klebsiella selective media. Data bars represent the average (n=6 mice per treatment group)±standard error.

[3] = system: K. pneumoniae 7225; experiment: Lethal peritonitis infection model (survival); format: in vivo, Swiss albino mice; conditions: for Survival in lethal K. pneumoniae infection: each 10 mg kg^−1 s.c.
Protocol: as §1
For the lethal peritonitis infections, mice were treated as in the non-lethal infection studies except the inoculation dose was 2×10^7 CFU mL^−1 K. pneumoniae 7225. The mice were then divided into the previously listed treatment regimens and treatment was provided every 24 h for two days after infection. Mice were monitored for mortality for 7 days and the moribund mice were euthanized humanely using cervical dislocation.
For survival experiments, Swiss albino mice were given lethal doses of K. pneumoniae 7225 (C) (2×10^7 CFU ml^−1) via i.p. injection. Mice were treated the same as in the non-lethal peritonitis experiments and mortality was monitored for 7 days. Data lines represent the percent of mice (n=10 mice per treatment group) that survived daily. […]

[4] = system: Klebsiella pneumoniae ATCC BAA-2814; experiment: Gene expression analysis by quantitative reverse transcription PCR; format: cell-based
Protocol: Cell treatment and RNA extraction: Overnight cultures of Klebsiella pneumoniae ATCC BAA-2814 grown on Brain Heart Infusion (BHI) agar was harvested and washed in phosphate buffer saline (pH=7.4) twice. Fresh Brain Heart infusion broth was inoculated with K. pneumoniae cells to a final concentration of 10^6 CFU mL^−1. Cells were subjected to the following treatments: T0—Vehicle only (ddH2O); T1—Meropenem only (0.25 MIC; 8 μg mL^−1); T2—Meropenem 0.25 MIC+SP-azaBIM 136 (2 ug mL^−1). Treated cells were incubated at 35° C. at 200 rpm and total RNA was extracted at 1 h and 6 h post exposure using TRIzol reagent (Life Technologies) following the manufacturer's protocol before eluting in DEPC treated water. Three biological replicates were included for each treatment.
Quantitative reverse transcription PCR analysis: Reverse transcription was done using the GoScript Reverse Transcriptase Kit (Promega, USA) employing a mixture (1:1) of random and oligo dT primers with 2 μg RNA as starting material in a 20-μL reaction following the manufacturers protocols. cDNA samples were then quantified by real-time PCR using specific primers in an Applied Biosystems 7500 Fast Real-Time PCR system (Life Technologies Corp., USA) and the data analysed using the 2^(−ΔΔct) method. Thermal cycling was performed using a two-step PCR amplification standard procedure at 95° C. for 30 s and 35 cycles of 95° C. for 5 s and 60° C. for 30 s. The expression levels of all the genes were normalized using the K. pneumoniae RNA polymerase sigma factor (rpoD) gene as an internal standard.
To examine this hypothesis, we investigated the expression of genes in K. pneumoniae ATCC […] that were affected by SP-azaBIM 136 treatment. Expression of key transcription factors and their associated downstream resistance and pathogenicity genes was examined in Klebsiella pneumoniae cells treated with meropenem and a combination of meropenem and SP-azaBIM 136. Cells in the exponential phase were either treated with 0.25 MIC (8 μg mL^−1) of Meropenem only or a combination of 0.25 MIC meropenem and 10 μg mL^−1 of SP-azaBIM 136. Untreated cells served as the control for baseline gene expression. Cells were exposed to each agent for 1 h and 6 h, after which the total RNA was extracted, and cDNA synthesis performed. […] The addition of SP-azaBIM 136 was theorized to revert the expression of the relevant genes closer to baseline expression levels.

[5] = co-administered with Meropenem 10 mg kg^−1, SP-azaBIM 136 10 mg kg^−1 s.c. at 1, 24, 48 h, versus Meropenem only
[6] = combination with Ciprofloxacin 10 mg kg^−1, SP-azaBIM 136 10 mg kg^−1 s.c., compared to Ciprofloxacin only
[7] = Meropenem 0.25 MIC + SP-azaBIM 136, 6 h
[8] = addition of SP-azaBIM 136 to meropenem, versus meropenem only

| SMILES | MIC [1] [µg/mL] | K. pneumoniae load in the organs ([2]; SP-azaBIM 136 on its own, 10 mg kg^−1) | Reduction of bacterial cells in the liver [2, 5] [fold] | Reduction of bacterial cells in the spleen [2, 5] [fold] | Reduction of bacterial cells in the liver [2, 6] [fold] | Reduction of bacterial cells in the spleen [2, 6] [fold] | Protection to lethal infections ([3]; SP-azaBIM 136 on its own) | Survival in lethal K. pneumoniae infection ([3]; co-treatment with Ciprofloxacin, 7 days) [%] | Survival in lethal K. pneumoniae infection ([3]; co-treatment with Meropenem, 7 days) [%] | Mortality in lethal K. pneumoniae infection ([3]; monotherapy 10 mg kg^−1 s.c., 2×10^7 CFU ml^−1 i.p., 7 days) [%] | ROB gene expression relative to baseline levels ([4]; Meropenem 0.25 MIC + SP-azaBIM 136 (2 ug mL^−1, 10 μg mL^−1 elsewhere in the source), 1 h) | soxS gene expression compared to untreated cells ([4]; Meropenem 0.25 MIC + SP-azaBIM 136, 1 h) [fold] | ROB gene expression relative to baseline levels [4, 7] [fold] | soxS gene expression compared to untreated cells [4, 7] [fold] | Expression of extended spectrum beta-lactamases and carbapenemase gene KPC ([4]; Meropenem + SP-azaBIM 136) | TEM-1 gene expression ([4]; Meropenem + SP-azaBIM 136) | marA regulatory gene expression response ([4]; Meropenem + SP-azaBIM 136) | Virulence gene expression (fimH, entB, iutA, rpmA) ([4]; SP-azaBIM 136 added to meropenem, 1 h and 6 h) | Reduction in mexA gene expression [4, 8] [fold] | Reduction in norB gene expression [4, 8] [fold] |
| --- | --- | --- | --- | --- | --- | --- | --- | --- | --- | --- | --- | --- | --- | --- | --- | --- | --- | --- | --- | --- |
| Oc1ccc(C(c2c[nH]c3cnccc23)c2c[nH]c3cnccc23)cc1 [SP-6azaBIM 136, 4-(bis(1H-pyrrolo[2,3-c]pyridin-3-yl)methyl)phenol] | < 1020 | not able to reduce K. pneumoniae load in the organs | 41 | 14 | ~53 | ~12 | nor provide any protection to lethal infections | 100 | 90 | 100 | 0.35 times that of baseline levels | 0.28 | 1.4 | 0.76 | significantly suppressed | no significant variation in expression | not as profound as the other two genes | expression decreased significantly | 17 | 4.5 |
| Brc1ccc(C(c2c[nH]c3cnccc23)c2c[nH]c3cnccc23)cc1 [SP-6azaBIM 125, 3,3′-((4-bromophenyl)methylene)bis(1H-pyrrolo[2,3-c]pyridine)] | < 1020 |  |  |  |  |  |  |  |  |  |  |  |  |  |  |  |  |  |  |  |
